Experiments:
[1] = tested on: Enterococcus faecalis EFS.201 (ATCC 49452); type: cell-based; conditions: ATCC 49452
Outline: (§1)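 Broth microdilution per CLSI M7-A7 in Mueller Hinton broth supplemented with 50 mg/L calcium, 5×10^5 bacteria per well, 2-fold compound dilutions, DMSO ≤1%. Plates incubated 18-20 hours at 37° C with aeration (200 rpm); MIC (μg/mL) is the lowest concentration giving no visible turbidity.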

[2] = tested on: Enterococcus faecalis EFS.312, Daptomycin resistant mutant (EFA); type: cell-based; conditions: MHBc with 50 mg/L calcium, 18-20 hours at 37° C.
Outline: as §1

[3] = tested on: Enterococcus faecium EFM.14 (ATCC 6569); type: cell-based; conditions: ATCC 6569
Outline: as §1

[4] = tested on: Enterococcus faecium EFM.384, Daptomycin resistant mutant (14-A); type: cell-based; conditions: MHBc with 50 mg/L calcium, 18-20 hours at 37° C.
Outline: as §1

[5] = tested on: Staphylococcus aureus SAU.278, Daptomycin resistant mutant (D10); type: cell-based; conditions: MHBc with 50 mg/L calcium, 18-20 hours at 37° C.
Outline: as §1

[6] = tested on: Staphylococcus aureus SAU.399 (ATCC 43300), Methicillin and Oxacillin Resistant; type: cell-based; conditions: ATCC 43300
Outline: as §1

[7] = tested on: Staphylococcus aureus SAU.42 (ATCC 29213); type: cell-based; conditions: ATCC 29213
Outline: as §1

| SMILES | Efs201 MIC [1] | Efs312 MIC [2] | Efm14 MIC [3] | Efm384 MIC [4] | Sa278 MIC [5] | Sa399 MIC [6] | Sa42 MIC [7] | C. diff MIC90 (Clostridium difficile) |
| --- | --- | --- | --- | --- | --- | --- | --- | --- |
| CC(C)Cc1ccc(C(C)C(=O)N[C@@H](Cc2c[nH]c3ccccc23)C(=O)N[C@H](CC(N)=O)C(=O)N[C@@H](CC(=O)O)C(=O)N[C@@H]2C(=O)NCC(=O)N[C@@H](CCCN)C(=O)N[C@@H](CC(=O)O)C(=O)N[C@H](C)C(=O)N[C@@H](CC(=O)O)C(=O)NCC(=O)N[C@H](CO)C(=O)N[C@@H]([C@H](C)CC(=O)O)C(=O)N[C@@H](CC(=O)c3ccccc3N)C(=O)O[C@@H]2C)cc1 (single isomer, unassigned) [45 isomer I] | >32 µg/mL | >32 µg/mL | >32 µg/mL | >32 µg/mL | >32 µg/mL | 8 µg/mL | 8 µg/mL | 32 µg/mL |
| CCCC1CCC(c2ccc(C(=O)N[C@@H](Cc3c[nH]c4ccccc34)C(=O)N[C@H](CC(N)=O)C(=O)N[C@@H](CC(=O)O)C(=O)N[C@@H]3C(=O)NCC(=O)N[C@@H](CCCN)C(=O)N[C@@H](CC(=O)O)C(=O)N[C@H](C)C(=O)N[C@@H](CC(=O)O)C(=O)NCC(=O)N[C@H](CO)C(=O)N[C@@H]([C@H](C)CC(=O)O)C(=O)N[C@@H](CC(=O)c4ccccc4N)C(=O)O[C@@H]3C)cc2)CC1 (single isomer, unassigned) [53 isomer II] | 1 µg/mL | 4 µg/mL | 1 µg/mL | 4 µg/mL | 2 µg/mL | 1 µg/mL | 0.5 µg/mL | 1 µg/mL |
| CCCCCCCCCCC(=O)N[C@@H](Cc1c[nH]c2ccccc12)C(=O)N[C@H](CC(N)=O)C(=O)N[C@@H](CC(=O)O)C(=O)N[C@@H]1C(=O)NCC(=O)N[C@@H](CCCN)C(=O)N[C@@H](CC(=O)O)C(=O)N[C@H](C)C(=O)N[C@@H](CC(=O)O)C(=O)NCC(=O)N[C@H](CO)C(=O)N[C@@H]([C@H](C)CC(=O)O)C(=O)N[C@@H](CC(=O)c2ccccc2N)C(=O)O[C@@H]1C [Compound 2] | 2 µg/mL | 32 µg/mL | 2 µg/mL | >32 µg/mL | 8 µg/mL | 0.5 µg/mL | 2 µg/mL | 4 µg/mL |
| CCCCCCCCCCCCC(=O)N[C@@H](Cc1c[nH]c2ccccc12)C(=O)N[C@H](CC(N)=O)C(=O)N[C@@H](CC(=O)O)C(=O)N[C@@H]1C(=O)NCC(=O)N[C@@H](CCCN)C(=O)N[C@@H](CC(=O)O)C(=O)N[C@H](C)C(=O)N[C@@H](CC(=O)O)C(=O)NCC(=O)N[C@H](CO)C(=O)N[C@@H]([C@H](C)CC(=O)O)C(=O)N[C@@H](CC(=O)c2ccccc2N)C(=O)O[C@@H]1C [Compound 5] | 0.5 µg/mL | 8 µg/mL | 0.5 µg/mL | 8 µg/mL | 2 µg/mL | 0.5 µg/mL | 0.5 µg/mL | 8 µg/mL |
| CCCCCCCCCCCCCC(=O)N[C@@H](Cc1c[nH]c2ccccc12)C(=O)N[C@H](CC(N)=O)C(=O)N[C@@H](CC(=O)O)C(=O)N[C@@H]1C(=O)NCC(=O)N[C@@H](CCCN)C(=O)N[C@@H](CC(=O)O)C(=O)N[C@H](C)C(=O)N[C@@H](CC(=O)O)C(=O)NCC(=O)N[C@H](CO)C(=O)N[C@@H]([C@H](C)CC(=O)O)C(=O)N[C@@H](CC(=O)c2ccccc2N)C(=O)O[C@@H]1C [Compound 6] | 0.25 µg/mL | 4 µg/mL | 0.5 µg/mL | 4 µg/mL | 2 µg/mL | 0.25 µg/mL | 1 µg/mL | 16 µg/mL |

Source: patent US20150337013A1, “NOVEL ANTIBACTERIAL AGENTS FOR THE TREATMENT OF GRAM POSITIVE INFECTIONS” (priority 2008, published 2015)
